From ChEMBL document CHEMBL4622905, “Synthesis and antifungal activity of new hybrids pyrimido[4,5-d]pyridazinone-N-acylhydrazones” (Bioorg Med Chem Lett, 2020) come the findings set out here.

≈ marks a conversion by molar mass, not a printed value. Calls of active or inactive are those of the source. The calls are words filed in the database; no cut-off is given here.

Data set [1] concerns Paracoccidioides brasiliensis. The experiment in a line: Synergistic antifungal activity against Paracoccidioides brasiliensis Pb18 assessed as fractional inhibitory concentration in presence of amphotericin B. In kind it is functional.
Data set [2] in a line: Selectivity index, ratio for cytotoxicity for monkey Vero cells to MIC for Paracoccidioides brasiliensis Pb18. In kind it is toxicity, cell-based.
The nature of data set [3]: Selectivity index, ratio for cytotoxicity for human HeLa cells to MIC for Paracoccidioides brasiliensis Pb18. In kind it is toxicity, cell-based.
The next data set deals with Candida. The data set is described as follows: Antifungal activity against Candida. In kind it is functional, organism-based.
In data set [4] the test system is Paracoccidioides brasiliensis. The experiment in a line: Antifungal activity against Paracoccidioides brasiliensis Pb18 in presence of 0.125 ug/ml amphotericin B. In kind it is functional.
The next data set deals with HeLa. The experiment in a line: Cytotoxicity against human HeLa cells at 512 ug/ml. In kind it is cell-based.
The test system of data set [5] is Paracoccidioides brasiliensis. The data set is described as follows: Antifungal activity against Paracoccidioides brasiliensis Pb18 in presence of amphotericin B. In kind it is functional.
In data set [6] the test system is Paracoccidioides brasiliensis. The experiment in a line: Fungicidal activity against Paracoccidioides brasiliensis Pb18. In kind it is functional.
For another data set, the system named is Vero. The data set is described as follows: Cytotoxicity against monkey Vero cells at 512 ug/ml. Conditions: chlorocebus sabaeus. In kind it is cell-based.
Data set [7] relates to Paracoccidioides brasiliensis. The data set is described as follows: Antifungal activity against Paracoccidioides brasiliensis Pb18. In kind it is functional.
Data set [8] has as its system Paracoccidioides brasiliensis. The data set is described as follows: Antifungal activity against Paracoccidioides brasiliensis Pb18 in presence of 0.25 ug/ml amphotericin B. In kind it is functional.
The subject of data set [9] is Paracoccidioides brasiliensis. The data set is described as follows: Antifungal activity against Paracoccidioides brasiliensis Pb18 in presence of 0.06 ug/ml amphotericin B. In kind it is functional.
In a further data set the test system is Nakaseomyces glabratus. The experiment in a line: Antifungal activity against Candida glabrata. In kind it is functional.
Data set [10] has as its system Paracoccidioides brasiliensis. The experiment in a line: Antifungal activity against Paracoccidioides brasiliensis Pb18 in presence of 0.01 ug/ml amphotericin B. In kind it is functional.
The subject of another data set is Candida albicans. The experiment in a line: Antifungal activity against Candida albicans. In kind it is functional.
The test system of the next data set is Candida tropicalis. The experiment in a line: Antifungal activity against Candida tropicalis. In kind it is functional.

In general, MIC refers to the lowest concentration that inhibits growth of the organism. For orientation: MFC means the lowest tested concentration that kills the fungus rather than only halting it. For `O=C(N/N=C/c1ccccc1O)c1n[nH]c(=O)c2nc(-c3ccccc3)ncc12`, the FIC in [1] is 0.625. Besides, the selectivity ratio in data set [2] and in data set [3] was 3 each time. For the same compound, in the data set on Candida, the result was inactive. The MIC is 0.25 µg/mL in [4], 8 µg/mL in data set [5] and 128 µg/mL (≈ 331 µM) in data set [7]. The Activity in the data set on HeLa and with Vero was over 80% each time. This compound also had an MFC in [6] of 128 µg/mL (≈ 331 µM).

With `O=C(N/N=C/c1cccs1)c1n[nH]c(=O)c2nc(-c3ccccc3)ncc12`, in data set [7], the MIC is over 256 µg/mL.

`O=C(N/N=C/c1ccc([N+](=O)[O-])cc1)c1n[nH]c(=O)c2nc(-c3ccccc3)ncc12` yielded an MIC in [7] of over 256 µg/mL.

As to `COc1cc(/C=N/NC(=O)c2n[nH]c(=O)c3nc(-c4ccccc4)ncc23)ccc1O`, the MIC in data set [7] is over 256 µg/mL.

Regarding `O=C(N/N=C/c1cccc([N+](=O)[O-])c1)c1n[nH]c(=O)c2nc(-c3ccccc3)ncc12`, the MIC in data set [7] is over 256 µg/mL.

As for `CCC(C)n1ncn(-c2ccc(N3CCN(c4ccc(OCC5COC(Cn6cncn6)(c6ccc(Cl)cc6Cl)O5)cc4)CC3)cc2)c1=O` (stereo not drawn) [ITRACONAZOLE], the MIC in data set [7] was 1 µg/mL (≈ 1.42 µM).

For the compound `O=C(N/N=C/c1ccc(F)cc1)c1n[nH]c(=O)c2nc(-c3ccccc3)ncc12`, the FIC in [1] is reported as 0.625. Besides, the selectivity ratio in data set [2] and in [3] was 5 throughout. Besides, the outcome in the data set on Candida was inactive. The Activity in the data set with HeLa and in the data set with Vero was over 80% each time. The values for the MIC in data set [5], in data set [8] and in data set [7] were 8 µg/mL, 0.5 µg/mL and 32 µg/mL (≈ 82.4 µM), respectively. In data set [6], this compound yielded an MFC of 32 µg/mL (≈ 82.4 µM).

In the case of `O=C(N/N=C/c1cc([N+](=O)[O-])ccc1O)c1n[nH]c(=O)c2nc(-c3ccccc3)ncc12`, in data set [1], the FIC was determined as 0.625. The selectivity ratio in [2] and in data set [3] was 3 each time. Also, the outcome with Candida was inactive. In addition, the MIC in data set [4] stood at 0.25 µg/mL; in data set [5], 8 µg/mL; in [7], 128 µg/mL (≈ 297 µM). For the same compound, the Activity in the data set with HeLa and in the data set with Vero was over 80% throughout. The compound also had an MFC in data set [6] of 128 µg/mL (≈ 297 µM).

In data set [6], `C[C@@H]1[C@H](O)[C@@H](C)/C=C/C=C/C=C/C=C/C=C/C=C/C=C/[C@H](O[C@@H]2O[C@H](C)[C@@H](O)[C@H](N)[C@@H]2O)C[C@@H]2O[C@](O)(C[C@@H](O)C[C@@H](O)[C@H](O)CC[C@@H](O)C[C@@H](O)CC(=O)O[C@H]1C)C[C@H](O)[C@H]2C(=O)O` [AMPHOTERICIN B] came in with an MFC of 1 µg/mL (≈ 1.08 µM). Further, the lowest concentration to inhibit growth in data set [7] (MIC) was 1 µg/mL (≈ 1.08 µM).

`CN(C)c1ccc(/C=N/NC(=O)c2n[nH]c(=O)c3nc(-c4ccccc4)ncc23)cc1` returned a minimum inhibitory concentration (MIC) in data set [7] of over 256 µg/mL.

Consider `COc1ccc(/C=N/NC(=O)c2n[nH]c(=O)c3nc(-c4ccccc4)ncc23)cc1`, for which the MIC in data set [7] is over 256 µg/mL.

`COc1cc(/C=N/NC(=O)c2n[nH]c(=O)c3nc(-c4ccccc4)ncc23)cc(OC)c1O`: the FIC in [1] is given as 0.75. For the same compound, the selectivity ratio in data set [2] and in data set [3] was 4 each time. Further, the result with Candida was inactive. Besides, the results for the MIC in data set [4], in data set [5] and in [7] were 0.5 µg/mL, 16 µg/mL and 64 µg/mL (≈ 143 µM), respectively. Also, the Activity with HeLa and in the data set on Vero was over 80% each time. The compound further showed an MFC in [6] of 64 µg/mL (≈ 143 µM).

As to `O=C(N/N=C/c1cc(Cl)ccc1O)c1n[nH]c(=O)c2nc(-c3ccccc3)ncc12`, the MIC is 0.5 µg/mL in data set [9], 4 µg/mL (≈ 9.51 µM) in the data set with Nakaseomyces glabratus, 4 µg/mL in data set [5] and 64 µg/mL (≈ 152 µM) in data set [7]. Also, the FIC in [1] was 0.245. Moreover, the selectivity ratio in [2] and in data set [3] was 4 in each case. For the same compound, the Activity in the data set with HeLa and in the data set with Vero was over 80% in each case. The MFC in data set [6] came out at 64 µg/mL (≈ 152 µM).

Consider `NNC(=O)c1n[nH]c(=O)c2nc(-c3ccccc3)ncc12`, for which the MIC in data set [7] is over 256 µg/mL.

In [7], `O=C(N/N=C/c1ccc(-c2cccs2)s1)c1n[nH]c(=O)c2nc(-c3ccccc3)ncc12` displayed an MIC of over 256 µg/mL.

As for `COc1ccc(/C=N/NC(=O)c2n[nH]c(=O)c3nc(-c4ccccc4)ncc23)cc1OC`, the FIC in data set [1] turned out to be 0.625. Also, the selectivity ratio in data set [2] and in data set [3] was 4 in each case. Also, in the data set with Candida, the outcome was inactive. The Activity with HeLa and in the data set with Vero was over 80% each time. Besides, the MIC in [5] is 16 µg/mL; in [8], 0.5 µg/mL; in [7], 64 µg/mL (≈ 149 µM). The MFC in [6] was 64 µg/mL (≈ 149 µM).

In turn, `O=C(N/N=C/c1ccccn1)c1n[nH]c(=O)c2nc(-c3ccccc3)ncc12` came in with an MIC in [7] of over 256 µg/mL.

Turning to `O=C(N/N=C/c1ccc(O)cc1)c1n[nH]c(=O)c2nc(-c3ccccc3)ncc12`, the MIC came to 0.5 µg/mL in data set [9], 16 µg/mL in data set [5] and 32 µg/mL (≈ 82.8 µM) in [7]. Further, the FIC in data set [1] is given as 0.37. Moreover, the selectivity ratio in [2] and in data set [3] was 5 in each case. In addition, in the data set on Candida, the outcome was inactive. The Activity in the data set on HeLa and with Vero was over 80% throughout. Also, in data set [6], the MFC is 32 µg/mL (≈ 82.8 µM).

In the case of `O=C(N/N=C/c1ccccc1)c1n[nH]c(=O)c2nc(-c3ccccc3)ncc12`, the MIC in [10] is 1 µg/mL; in data set [5] it was 0.031 µg/mL; with Candida albicans, 4 µg/mL (≈ 10.8 µM); against Candida tropicalis, 8 µg/mL (≈ 21.6 µM); in data set [7] it was 0.125 µg/mL (≈ 0.337 µM). Further, in data set [1], the FIC is on record as 0.134. Moreover, the selectivity ratio in data set [2] and in data set [3] was 13 each time. The Activity in the data set on HeLa and in the data set with Vero was over 80% each time. Further, the MFC in [6] stood at 0.5 µg/mL (≈ 1.35 µM).
